Like-named read-outs stand apart in the source and are kept apart here.
Assays:
Format in all cases: cell-based
[1] = target: human NaV1.7 (Homo sapiens, UniProt Q15858); test: IonWorks Quattro (IWQ) electrophysiology, human NaV1.7; settings: read-out: Glu mutant IWQ IC50 NaV1.7
[2] = target: human NaV1.5 (Homo sapiens, UniProt Q14524); test: IonWorks Quattro (IWQ) electrophysiology, human NaV1.5
[3] = target: human NaV1.4 (Homo sapiens, UniProt P35499); test: IonWorks Quattro (IWQ) electrophysiology, human NaV1.4
Sequence of human NaV1.4 (P35499 whole entry): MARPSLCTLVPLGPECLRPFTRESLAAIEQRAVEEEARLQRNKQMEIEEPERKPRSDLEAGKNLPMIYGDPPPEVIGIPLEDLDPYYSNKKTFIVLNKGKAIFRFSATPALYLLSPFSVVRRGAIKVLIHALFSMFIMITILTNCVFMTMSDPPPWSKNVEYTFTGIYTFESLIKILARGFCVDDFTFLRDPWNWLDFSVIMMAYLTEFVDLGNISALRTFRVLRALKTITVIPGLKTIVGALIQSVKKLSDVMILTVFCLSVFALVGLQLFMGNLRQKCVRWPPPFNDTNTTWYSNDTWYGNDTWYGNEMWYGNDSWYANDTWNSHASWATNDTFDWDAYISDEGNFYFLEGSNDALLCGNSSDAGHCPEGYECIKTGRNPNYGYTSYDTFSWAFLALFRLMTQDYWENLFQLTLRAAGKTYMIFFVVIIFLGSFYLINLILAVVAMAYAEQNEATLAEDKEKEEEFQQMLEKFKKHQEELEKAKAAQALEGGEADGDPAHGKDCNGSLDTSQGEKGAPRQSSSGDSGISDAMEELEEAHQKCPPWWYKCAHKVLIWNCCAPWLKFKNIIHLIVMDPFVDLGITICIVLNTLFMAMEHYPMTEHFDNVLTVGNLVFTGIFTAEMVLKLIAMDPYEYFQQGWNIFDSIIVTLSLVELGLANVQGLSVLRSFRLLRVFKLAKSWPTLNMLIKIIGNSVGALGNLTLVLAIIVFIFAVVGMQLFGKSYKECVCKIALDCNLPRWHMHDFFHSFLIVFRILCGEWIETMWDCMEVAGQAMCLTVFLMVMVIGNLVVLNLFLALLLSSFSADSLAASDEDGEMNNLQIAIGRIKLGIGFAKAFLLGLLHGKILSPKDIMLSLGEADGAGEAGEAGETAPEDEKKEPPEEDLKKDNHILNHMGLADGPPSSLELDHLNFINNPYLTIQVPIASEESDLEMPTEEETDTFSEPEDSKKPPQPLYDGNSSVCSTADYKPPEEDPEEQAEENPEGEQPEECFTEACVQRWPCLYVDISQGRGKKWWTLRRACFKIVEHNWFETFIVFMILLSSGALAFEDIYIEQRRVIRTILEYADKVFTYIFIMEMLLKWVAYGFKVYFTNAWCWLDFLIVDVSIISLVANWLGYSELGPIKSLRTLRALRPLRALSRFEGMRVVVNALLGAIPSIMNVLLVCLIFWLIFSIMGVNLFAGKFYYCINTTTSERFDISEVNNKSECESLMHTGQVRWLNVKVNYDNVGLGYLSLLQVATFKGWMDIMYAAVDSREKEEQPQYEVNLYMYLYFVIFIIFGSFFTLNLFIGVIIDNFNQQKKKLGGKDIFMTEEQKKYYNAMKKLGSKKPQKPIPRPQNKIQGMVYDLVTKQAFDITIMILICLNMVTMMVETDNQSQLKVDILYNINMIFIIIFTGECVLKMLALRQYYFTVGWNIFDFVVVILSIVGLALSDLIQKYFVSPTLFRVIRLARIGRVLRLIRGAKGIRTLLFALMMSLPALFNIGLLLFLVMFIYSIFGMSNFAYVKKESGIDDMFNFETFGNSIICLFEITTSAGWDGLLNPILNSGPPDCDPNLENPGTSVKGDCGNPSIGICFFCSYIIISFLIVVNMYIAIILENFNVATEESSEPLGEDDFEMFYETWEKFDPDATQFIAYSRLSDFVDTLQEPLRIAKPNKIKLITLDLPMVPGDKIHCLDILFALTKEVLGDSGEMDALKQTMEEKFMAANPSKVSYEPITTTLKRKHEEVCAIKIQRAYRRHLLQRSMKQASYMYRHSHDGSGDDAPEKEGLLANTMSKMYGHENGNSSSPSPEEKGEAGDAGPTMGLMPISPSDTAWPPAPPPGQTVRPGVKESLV

[4] = read-out: Glu mutant IWQ IC50 NaV1.5
[5] = read-out: Glu mutant IWQ IC50 NaV1.4
[6] = human, read-out: Glu mutant IWQ IC50 NaV1.5
[7] = human, read-out: Ala mutant IWQ IC50 NaV1.5
[8] = read-out: Ala mutant IWQ IC50 NaV1.4

Sequence of human NaV1.5 (Q14524 whole entry): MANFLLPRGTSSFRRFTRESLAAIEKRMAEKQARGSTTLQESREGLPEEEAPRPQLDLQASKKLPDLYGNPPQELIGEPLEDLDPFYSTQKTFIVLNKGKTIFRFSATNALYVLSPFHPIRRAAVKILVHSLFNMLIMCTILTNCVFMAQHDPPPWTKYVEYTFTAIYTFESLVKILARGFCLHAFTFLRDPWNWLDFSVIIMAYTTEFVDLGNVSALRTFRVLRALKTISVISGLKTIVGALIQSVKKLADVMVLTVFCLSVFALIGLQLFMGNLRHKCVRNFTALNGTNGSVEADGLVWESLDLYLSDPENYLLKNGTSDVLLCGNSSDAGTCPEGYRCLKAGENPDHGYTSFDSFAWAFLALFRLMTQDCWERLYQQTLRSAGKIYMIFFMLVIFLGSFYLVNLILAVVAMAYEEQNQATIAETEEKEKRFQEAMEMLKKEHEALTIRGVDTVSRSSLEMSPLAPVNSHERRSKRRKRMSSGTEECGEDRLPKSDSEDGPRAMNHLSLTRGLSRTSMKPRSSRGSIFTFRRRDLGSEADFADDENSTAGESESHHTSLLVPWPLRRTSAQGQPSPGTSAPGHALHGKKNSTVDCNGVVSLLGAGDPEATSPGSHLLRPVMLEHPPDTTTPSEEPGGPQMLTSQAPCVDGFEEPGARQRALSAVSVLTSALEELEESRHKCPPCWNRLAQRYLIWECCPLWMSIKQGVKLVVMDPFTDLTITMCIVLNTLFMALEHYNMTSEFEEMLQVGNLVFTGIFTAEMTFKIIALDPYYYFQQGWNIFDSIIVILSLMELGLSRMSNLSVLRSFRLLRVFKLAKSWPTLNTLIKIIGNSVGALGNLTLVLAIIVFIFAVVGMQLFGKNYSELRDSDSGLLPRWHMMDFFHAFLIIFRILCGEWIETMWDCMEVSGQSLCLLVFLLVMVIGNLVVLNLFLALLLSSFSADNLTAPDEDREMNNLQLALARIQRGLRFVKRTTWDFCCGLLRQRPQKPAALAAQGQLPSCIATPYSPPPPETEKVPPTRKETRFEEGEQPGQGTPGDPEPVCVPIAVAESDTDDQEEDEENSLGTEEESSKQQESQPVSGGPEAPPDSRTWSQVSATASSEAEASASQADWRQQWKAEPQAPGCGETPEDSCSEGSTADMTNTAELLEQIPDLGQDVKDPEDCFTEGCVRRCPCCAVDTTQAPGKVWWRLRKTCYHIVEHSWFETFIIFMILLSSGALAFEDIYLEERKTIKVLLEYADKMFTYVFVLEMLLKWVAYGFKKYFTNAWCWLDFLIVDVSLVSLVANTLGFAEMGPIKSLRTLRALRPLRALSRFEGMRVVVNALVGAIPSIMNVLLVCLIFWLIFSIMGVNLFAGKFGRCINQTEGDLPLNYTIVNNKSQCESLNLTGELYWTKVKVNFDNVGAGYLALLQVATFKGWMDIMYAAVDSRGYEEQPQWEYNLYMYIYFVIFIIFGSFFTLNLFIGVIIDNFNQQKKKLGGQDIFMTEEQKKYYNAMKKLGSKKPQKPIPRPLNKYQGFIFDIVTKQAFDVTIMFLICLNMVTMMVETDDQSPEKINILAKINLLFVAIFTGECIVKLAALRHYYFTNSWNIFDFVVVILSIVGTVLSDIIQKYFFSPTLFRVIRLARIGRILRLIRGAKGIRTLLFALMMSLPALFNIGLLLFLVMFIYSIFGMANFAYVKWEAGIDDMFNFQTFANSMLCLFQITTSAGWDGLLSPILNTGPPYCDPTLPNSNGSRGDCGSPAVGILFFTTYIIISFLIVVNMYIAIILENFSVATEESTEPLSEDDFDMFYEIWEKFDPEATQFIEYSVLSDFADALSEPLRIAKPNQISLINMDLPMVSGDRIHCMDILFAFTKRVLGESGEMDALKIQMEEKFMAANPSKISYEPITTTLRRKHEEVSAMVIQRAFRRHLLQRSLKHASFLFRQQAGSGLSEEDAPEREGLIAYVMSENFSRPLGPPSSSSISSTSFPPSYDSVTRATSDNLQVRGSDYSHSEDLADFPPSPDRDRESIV

SMILES | IC50 [1] [µM] | IC50 [2, 4] [µM] | IC50 [3, 5] [µM] | IC50 [2, 6] [µM] | IC50 [2, 7] [µM] | IC50 [3, 8] [µM]
CC[C@H](C)[C@H](NC(=O)[C@@H](NC(=O)[C@H](CCCCN)NC(=O)[C@H](CCCNC(=N)N)NC(=O)[C@@H]1CSSC[C@@H]2NC(=O)[C@H](C)NC(=O)[C@H](CCCNC(=N)N)NC(=O)[C@H](CCCCN)NC(=O)[C@H](CO)NC(=O)[C@H](CC(=O)O)NC(=O)[C@@H]3CSSC[C@H](NC(=O)[C@H](CCCNC(=N)N)NC(=O)[C@H](CCC(=O)O)NC(=O)CNC(=O)[C@H](CCC(=O)O)NC(=O)[C@H](CSSC[C@H](NC(=O)[C@@H](N)Cc4ccc(O)cc4)C(=O)N[C@@H](CCC(N)=O)C(=O)N[C@@H](CCCCN)C(=O)N[C@@H](Cc4c[nH]c5ccccc45)C(=O)N[C@@H](CCSC)C(=O)N[C@@H](Cc4c[nH]c5ccccc45)C(=O)N[C@@H]([C@@H](C)O)C(=O)N3)NC2=O)C(=O)N[C@@H](CCCCN)C(=O)N[C@@H](CC(C)C)C(=O)N[C@@H](Cc2c[nH]c3ccccc23)C(=O)N1)[C@@H](C)CC)C(N)=O [L19 Glu mutant] | > 10 | > 10 | > 10 | – | – | –
CC[C@H](C)[C@H](NC(=O)[C@@H](NC(=O)[C@H](CCCCN)NC(=O)[C@H](CCCNC(=N)N)NC(=O)[C@@H]1CSSC[C@@H]2NC(=O)[C@H](C)NC(=O)[C@H](CCCNC(=N)N)NC(=O)[C@H](CCCCN)NC(=O)[C@H](CO)NC(=O)[C@H](CC(=O)O)NC(=O)[C@@H]3CSSC[C@H](NC(=O)[C@H](CCCNC(=N)N)NC(=O)[C@H](CC(C)C)NC(=O)CNC(=O)[C@H](CCC(=O)O)NC(=O)[C@H](CSSC[C@H](NC(=O)[C@@H](N)CCC(=O)O)C(=O)N[C@@H](CCC(N)=O)C(=O)N[C@@H](CCCCN)C(=O)N[C@@H](Cc4c[nH]c5ccccc45)C(=O)N[C@@H](CCSC)C(=O)N[C@@H](Cc4c[nH]c5ccccc45)C(=O)N[C@@H]([C@@H](C)O)C(=O)N3)NC2=O)C(=O)N[C@@H](CCCCN)C(=O)N[C@@H](CC(C)C)C(=O)N[C@@H](Cc2c[nH]c3ccccc23)C(=O)N1)[C@@H](C)CC)C(N)=O [Y1 Glu mutant] | – | – | 0.235 | > 5 | – | –
CC[C@H](C)[C@H](NC(=O)[C@@H](NC(=O)[C@H](CCCCN)NC(=O)[C@H](CCCNC(=N)N)NC(=O)[C@@H]1CSSC[C@@H]2NC(=O)[C@H](C)NC(=O)[C@H](CCCNC(=N)N)NC(=O)[C@H](CCCCN)NC(=O)[C@H](CO)NC(=O)[C@H](CC(=O)O)NC(=O)[C@@H]3CSSC[C@H](NC(=O)[C@H](CCCNC(=N)N)NC(=O)[C@H](CC(C)C)NC(=O)[C@H](CCC(=O)O)NC(=O)[C@H](CCC(=O)O)NC(=O)[C@H](CSSC[C@H](NC(=O)[C@@H](N)Cc4ccc(O)cc4)C(=O)N[C@@H](CCC(N)=O)C(=O)N[C@@H](CCCCN)C(=O)N[C@@H](Cc4c[nH]c5ccccc45)C(=O)N[C@@H](CCSC)C(=O)N[C@@H](Cc4c[nH]c5ccccc45)C(=O)N[C@@H]([C@@H](C)O)C(=O)N3)NC2=O)C(=O)N[C@@H](CCCCN)C(=O)N[C@@H](CC(C)C)C(=O)N[C@@H](Cc2c[nH]c3ccccc23)C(=O)N1)[C@@H](C)CC)C(N)=O [G18 Glu mutant] | 0.165 | > 10 | 1.22 | – | – | –
CC[C@H](C)[C@H](NC(=O)[C@@H](NC(=O)[C@H](CCCCN)NC(=O)[C@H](CCC(=O)O)NC(=O)[C@@H]1CSSC[C@@H]2NC(=O)[C@H](C)NC(=O)[C@H](CCCNC(=N)N)NC(=O)[C@H](CCCCN)NC(=O)[C@H](CO)NC(=O)[C@H](CC(=O)O)NC(=O)[C@@H]3CSSC[C@H](NC(=O)[C@H](CCCNC(=N)N)NC(=O)[C@H](CC(C)C)NC(=O)CNC(=O)[C@H](CCC(=O)O)NC(=O)[C@H](CSSC[C@H](NC(=O)[C@@H](N)Cc4ccc(O)cc4)C(=O)N[C@@H](CCC(N)=O)C(=O)N[C@@H](CCCCN)C(=O)N[C@@H](Cc4c[nH]c5ccccc45)C(=O)N[C@@H](CCSC)C(=O)N[C@@H](Cc4c[nH]c5ccccc45)C(=O)N[C@@H]([C@@H](C)O)C(=O)N3)NC2=O)C(=O)N[C@@H](CCCCN)C(=O)N[C@@H](CC(C)C)C(=O)N[C@@H](Cc2c[nH]c3ccccc23)C(=O)N1)[C@@H](C)CC)C(N)=O [R26 Glu mutant] | > 10 | > 10 | > 10 | – | – | –
CC[C@H](C)[C@H](NC(=O)[C@@H](NC(=O)[C@H](CCCCN)NC(=O)[C@H](CCCNC(=N)N)NC(=O)[C@@H]1CSSC[C@@H]2NC(=O)[C@H](C)NC(=O)[C@H](CCCNC(=N)N)NC(=O)[C@H](CCCCN)NC(=O)[C@H](CO)NC(=O)[C@H](CCC(=O)O)NC(=O)[C@@H]3CSSC[C@H](NC(=O)[C@H](CCCNC(=N)N)NC(=O)[C@H](CC(C)C)NC(=O)CNC(=O)[C@H](CCC(=O)O)NC(=O)[C@H](CSSC[C@H](NC(=O)[C@@H](N)Cc4ccc(O)cc4)C(=O)N[C@@H](CCC(N)=O)C(=O)N[C@@H](CCCCN)C(=O)N[C@@H](Cc4c[nH]c5ccccc45)C(=O)N[C@@H](CCSC)C(=O)N[C@@H](Cc4c[nH]c5ccccc45)C(=O)N[C@@H]([C@@H](C)O)C(=O)N3)NC2=O)C(=O)N[C@@H](CCCCN)C(=O)N[C@@H](CC(C)C)C(=O)N[C@@H](Cc2c[nH]c3ccccc23)C(=O)N1)[C@@H](C)CC)C(N)=O [D10 Glu mutant] | 1.3 | > 10 | 8.8 | – | – | –
CC[C@H](C)[C@H](NC(=O)[C@@H](NC(=O)[C@H](CCCCN)NC(=O)[C@H](CCCNC(=N)N)NC(=O)[C@@H]1CSSC[C@@H]2NC(=O)[C@H](C)NC(=O)[C@H](CCCNC(=N)N)NC(=O)[C@H](CCCCN)NC(=O)[C@H](CO)NC(=O)[C@H](CC(=O)O)NC(=O)[C@@H]3CSSC[C@H](NC(=O)[C@H](CCCNC(=N)N)NC(=O)[C@H](CC(C)C)NC(=O)CNC(=O)[C@H](CCC(=O)O)NC(=O)[C@H](CSSC[C@H](NC(=O)[C@@H](N)Cc4ccc(O)cc4)C(=O)N[C@@H](CCC(N)=O)C(=O)N[C@@H](CCCCN)C(=O)N[C@@H](Cc4c[nH]c5ccccc45)C(=O)N[C@@H](CCSC)C(=O)N[C@@H](Cc4c[nH]c5ccccc45)C(=O)N[C@@H]([C@@H](C)O)C(=O)N3)NC2=O)C(=O)N[C@@H](CCCCN)C(=O)N[C@@H](CC(C)C)C(=O)N[C@@H](CCC(=O)O)C(=O)N1)[C@@H](C)CC)C(N)=O [W24 Glu mutant] | 9.9 | > 10 | > 10 | – | – | –
CC[C@H](C)[C@H](NC(=O)[C@@H](NC(=O)[C@H](CCCCN)NC(=O)[C@H](CCCNC(=N)N)NC(=O)[C@@H]1CSSC[C@@H]2NC(=O)[C@H](C)NC(=O)[C@H](CCCNC(=N)N)NC(=O)[C@H](CCCCN)NC(=O)[C@H](CO)NC(=O)[C@H](CC(=O)O)NC(=O)[C@@H]3CSSC[C@H](NC(=O)[C@H](CCCNC(=N)N)NC(=O)[C@H](CC(C)C)NC(=O)[C@H](C)NC(=O)[C@H](CCC(=O)O)NC(=O)[C@H](CSSC[C@H](NC(=O)[C@@H](N)Cc4ccc(O)cc4)C(=O)N[C@@H](CCC(N)=O)C(=O)N[C@@H](CCCCN)C(=O)N[C@@H](Cc4c[nH]c5ccccc45)C(=O)N[C@@H](CCSC)C(=O)N[C@@H](Cc4c[nH]c5ccccc45)C(=O)N[C@@H]([C@@H](C)O)C(=O)N3)NC2=O)C(=O)N[C@@H](CCCCN)C(=O)N[C@@H](CC(C)C)C(=O)N[C@@H](Cc2c[nH]c3ccccc23)C(=O)N1)[C@@H](C)CC)C(N)=O [G18 Ala mutant] | – | – | – | – | > 5 | 0.265
CC[C@H](C)[C@H](NC(=O)[C@@H](NC(=O)[C@H](CCCCN)NC(=O)[C@H](CCCNC(=N)N)NC(=O)[C@@H]1CSSC[C@@H]2NC(=O)[C@H](CCC(=O)O)NC(=O)[C@H](CCCNC(=N)N)NC(=O)[C@H](CCCCN)NC(=O)[C@H](CO)NC(=O)[C@H](CC(=O)O)NC(=O)[C@@H]3CSSC[C@H](NC(=O)[C@H](CCCNC(=N)N)NC(=O)[C@H](CC(C)C)NC(=O)CNC(=O)[C@H](CCC(=O)O)NC(=O)[C@H](CSSC[C@H](NC(=O)[C@@H](N)Cc4ccc(O)cc4)C(=O)N[C@@H](CCC(N)=O)C(=O)N[C@@H](CCCCN)C(=O)N[C@@H](Cc4c[nH]c5ccccc45)C(=O)N[C@@H](CCSC)C(=O)N[C@@H](Cc4c[nH]c5ccccc45)C(=O)N[C@@H]([C@@H](C)O)C(=O)N3)NC2=O)C(=O)N[C@@H](CCCCN)C(=O)N[C@@H](CC(C)C)C(=O)N[C@@H](Cc2c[nH]c3ccccc23)C(=O)N1)[C@@H](C)CC)C(N)=O [A14 Glu mutant] | – | – | – | > 5 | – | –
CC[C@H](C)[C@H](NC(=O)[C@@H](NC(=O)[C@H](CCCCN)NC(=O)[C@H](CCCNC(=N)N)NC(=O)[C@@H]1CSSC[C@@H]2NC(=O)[C@H](C)NC(=O)[C@H](CCCNC(=N)N)NC(=O)[C@H](CCCCN)NC(=O)[C@H](CO)NC(=O)[C@H](CC(=O)O)NC(=O)[C@@H]3CSSC[C@H](NC(=O)[C@H](C)NC(=O)[C@H](CC(C)C)NC(=O)CNC(=O)[C@H](CCC(=O)O)NC(=O)[C@H](CSSC[C@H](NC(=O)[C@@H](N)Cc4ccc(O)cc4)C(=O)N[C@@H](CCC(N)=O)C(=O)N[C@@H](CCCCN)C(=O)N[C@@H](Cc4c[nH]c5ccccc45)C(=O)N[C@@H](CCSC)C(=O)N[C@@H](Cc4c[nH]c5ccccc45)C(=O)N[C@@H]([C@@H](C)O)C(=O)N3)NC2=O)C(=O)N[C@@H](CCCCN)C(=O)N[C@@H](CC(C)C)C(=O)N[C@@H](Cc2c[nH]c3ccccc23)C(=O)N1)[C@@H](C)CC)C(N)=O [R20 Ala mutant] | – | – | – | – | 4.64 | 0.425
CC[C@H](C)[C@H](NC(=O)[C@@H](NC(=O)[C@H](CCCCN)NC(=O)[C@H](CCCNC(=N)N)NC(=O)[C@@H]1CSSC[C@@H]2NC(=O)[C@H](C)NC(=O)[C@H](CCCNC(=N)N)NC(=O)[C@H](CCCCN)NC(=O)[C@H](CO)NC(=O)[C@H](CC(=O)O)NC(=O)[C@@H]3CSSC[C@H](NC(=O)[C@H](CCCNC(=N)N)NC(=O)[C@H](CC(C)C)NC(=O)CNC(=O)[C@H](CCC(=O)O)NC(=O)[C@H](CSSC[C@H](NC(=O)[C@@H](N)Cc4ccc(O)cc4)C(=O)N[C@@H](CCC(N)=O)C(=O)N[C@@H](CCCCN)C(=O)N[C@@H](Cc4c[nH]c5ccccc45)C(=O)N[C@@H](CCSC)C(=O)N[C@@H](CCC(=O)O)C(=O)N[C@@H]([C@@H](C)O)C(=O)N3)NC2=O)C(=O)N[C@@H](CCCCN)C(=O)N[C@@H](CC(C)C)C(=O)N[C@@H](Cc2c[nH]c3ccccc23)C(=O)N1)[C@@H](C)CC)C(N)=O [W7 Glu mutant] | – | – | – | > 5 | – | –
